{"source": "patent US10668049B2", "about": "“Methods of treating cognitive decline with transforming growth factor beta inhibitors” (The Regents of the University of California, priority 2008, dated 2020)", "key": {"TGF-β signaling pathway": {"tested_on": "TGF-β signaling pathway", "assay": "Microarray and real-time RT-PCR gene expression after in vivo albumin with or without TGF-βR blockers", "design": "species or system rat", "settings": "albumin alone, 24 hours", "procedure": "All experimental procedures were approved by the ethical committees dealing with experiments on animals at Charité University Medicine, Berlin and Ben-Gurion University of the Negev, Beer-Sheva. The in vivo experiments were performed as previously described (ivens et al., 2007; Seiffert et al., 2004). Adult male Wistar rats were treated with artificial cerebrospinal fluid (aCSF, composition in mM: 129 NaCl, 21 NaHCO3, 1.25 NaH2PO4, 1.8 MgSO4, 1.6 CaCl2, 3 KCl, 10 glucose) supplemented with deoxycholic acid (DOC, 2 mM, Sigma-Aldrich, Steinheim, Germany), bovine serum albumin (BSA, 0.1 mM. Merck, Darmstadt, Germany) corresponding to 25% of serum albumin concentration, or with TGF-β1 (10 ng/ml, Peprotech, Rocky Hill, N.J.). Sham-operated animals (perfused with aCSF) served as controls. […]\nTotal RNA was isolated using the TRIzol reagent (Invitrogen. Carlsbad, Calif.) and prepared using the Affymetrix GeneChip one-cycle target labeling kit (Affymetrix, Santa Clara, Calif.). […] Pairwise Pearson correlation coefficients for the three treatments were determined with Excel (Microsoft Corp., Richmond, Wash.). […]\nmRNA expression levels were determined by quantitative reverse transcriptase-PCR by real-time kinetic analysis with an iQ5 detection system (Bio-Rad, Hercules, Calif.). Real-time PCR data were analyzed using the PCR Miner program (Zhao and Fernald, 2005). […]"}, "brain slices": {"tested_on": "brain slices", "assay": "Field potentials during train stimulation in brain slices exposed to albumin in sACSF", "type": "cell-based, rat", "settings": "for field potential duration (at ⅓ maximal amplitude), 1st stimulus / field potential duration (at ⅓ maximal amplitude), 5th stimulus: treated", "procedure": "For electrophysiological experiments, rats were deeply anesthetized with isoflurane and then decapitated. Brains were quickly removed, and transverse hippocampal-cortical slices ([…] thick) were prepared using a vibratome (Campden Instruments, Loughborough, UK). Slices were maintained in a humidified, carbogenated (5% CO2 and 95% O2) gas atmosphere at 36±1° C. and perfused with ACSF in a standard interface chamber (Seiffert et al., 2004; Ivens et al., 2007). To mimic the altered ionic environment during BBB disruption, recordings were acquired in a serum-adapted electrolyte solution (sACSF; see Seiffert et al. 2004). sACSF was similar in composition to the ACSF except for different concentrations of MgSO4 (0.8 mM), CaCl2 (1.3 mM), KCl (5.7 mM) and glutamine (1 mM). “Treated” slices were incubated with sACSF containing 0.1 mM bovine serum albumin for 2 h before transfer to the perfusion chamber.\nElectrophysiological recordings were obtained 6-10 h following perfusion with sACSF. Control slices were treated similarly, using sACSF without albumin. For extracellular recordings, glass microelectrodes (˜3 MΩ, 154 mM NaCl) were positioned in layer 4 of the neocortex. Slices were stimulated with brief (100 μs) pulses, by using bipolar stimulation electrodes placed at the border between white and gray matter in the same conical column. Trains of 50 stimuli were applied at 2, 5, 10, 20, 50 and 100 Hz, at 2.5× threshold stimulation intensity. […] Extracellular potassium concentrations ([K+]o) were measured with ion-sensitive microelectrodes (ISMEs; Lux and Neher, 1973: Jauch et al., 2002).\nThe simulation data presented above predicted maximal EPSP facilitation at 20 Hz when [K^+]o clearance is reduced and decreased facilitation (at 50-100 Hz) when the only change induced is glutamate accumulation in the synaptic cleft. Field potentials in response to stimulation at various frequencies in brain slices during “epileptogenesis” (exposure to albumin in sACSF) compared to controls (sACSF alone) were therefore measured."}, "[1]": {"settings": "100 Hz stimulation, treated (n=4)"}}}
{"substance": "albumin: bovine serum albumin, used to induce epileptogenesis", "values": [{"measurement": "NF-kappaB cascade, Jak-Stat cascade, and MAPKKK cascade expression", "setting": "TGF-β signaling pathway", "value": "upregulated"}, {"measurement": "stimulation-induced long-lasting epileptiform discharges, slices showing them", "setting": "brain slices; 5 Hz stimulation", "value": "2 of 4"}, {"measurement": "stimulation-induced long-lasting epileptiform discharges, slices showing them", "setting": "brain slices; 10-Hz stimulation", "value": "4 of 4"}, {"measurement": "field potential duration (at ⅓ maximal amplitude), 1st stimulus", "setting": "brain slices; 10 Hz", "value": "6.5 ± 0.7", "unit": "ms"}, {"measurement": "field potential duration (at ⅓ maximal amplitude), 5th stimulus", "setting": "brain slices; 10 Hz", "value": "13.1 ± 2.6", "unit": "ms"}, {"measurement": "stimulation-induced long-lasting epileptiform discharges, slices showing them", "setting": "brain slices; 20 Hz stimulation", "value": "3 of 4"}, {"measurement": "field potential duration (at ⅓ maximal amplitude), 1st stimulus", "setting": "brain slices; 20 Hz", "value": "6.6 ± 0.8", "unit": "ms"}, {"measurement": "field potential duration (at ⅓ maximal amplitude), 5th stimulus", "setting": "brain slices; 20 Hz", "value": "12.9 ± 2.9", "unit": "ms"}, {"measurement": "field potential amplitude, 1st stimulus", "setting": "brain slices; [1]", "value": "1.44±0.36", "unit": "mV"}, {"measurement": "field potential amplitude, 5th stimulus", "setting": "brain slices; [1]", "value": "0.47±0.09", "unit": "mV"}]}
